Results taken from US20020082254A1, “Compounds for treating disorders where a decreased level of plasma FFA is desired” (priority 2000, published 2002).
Structures can show the parent of a compound that is named as a salt. Where two headings read alike, the source gives them in different places.

Key:
[1] = target: T1, Hormone-sensitive lipase (HSL) (Homo sapiens, UniProt Q05469); test: Hormone-sensitive lipase (HSL) inhibition assay, 3H-labeled triolein or MOME substrate; assay type: biochemical
T1 sequence (Q05469 1-1076): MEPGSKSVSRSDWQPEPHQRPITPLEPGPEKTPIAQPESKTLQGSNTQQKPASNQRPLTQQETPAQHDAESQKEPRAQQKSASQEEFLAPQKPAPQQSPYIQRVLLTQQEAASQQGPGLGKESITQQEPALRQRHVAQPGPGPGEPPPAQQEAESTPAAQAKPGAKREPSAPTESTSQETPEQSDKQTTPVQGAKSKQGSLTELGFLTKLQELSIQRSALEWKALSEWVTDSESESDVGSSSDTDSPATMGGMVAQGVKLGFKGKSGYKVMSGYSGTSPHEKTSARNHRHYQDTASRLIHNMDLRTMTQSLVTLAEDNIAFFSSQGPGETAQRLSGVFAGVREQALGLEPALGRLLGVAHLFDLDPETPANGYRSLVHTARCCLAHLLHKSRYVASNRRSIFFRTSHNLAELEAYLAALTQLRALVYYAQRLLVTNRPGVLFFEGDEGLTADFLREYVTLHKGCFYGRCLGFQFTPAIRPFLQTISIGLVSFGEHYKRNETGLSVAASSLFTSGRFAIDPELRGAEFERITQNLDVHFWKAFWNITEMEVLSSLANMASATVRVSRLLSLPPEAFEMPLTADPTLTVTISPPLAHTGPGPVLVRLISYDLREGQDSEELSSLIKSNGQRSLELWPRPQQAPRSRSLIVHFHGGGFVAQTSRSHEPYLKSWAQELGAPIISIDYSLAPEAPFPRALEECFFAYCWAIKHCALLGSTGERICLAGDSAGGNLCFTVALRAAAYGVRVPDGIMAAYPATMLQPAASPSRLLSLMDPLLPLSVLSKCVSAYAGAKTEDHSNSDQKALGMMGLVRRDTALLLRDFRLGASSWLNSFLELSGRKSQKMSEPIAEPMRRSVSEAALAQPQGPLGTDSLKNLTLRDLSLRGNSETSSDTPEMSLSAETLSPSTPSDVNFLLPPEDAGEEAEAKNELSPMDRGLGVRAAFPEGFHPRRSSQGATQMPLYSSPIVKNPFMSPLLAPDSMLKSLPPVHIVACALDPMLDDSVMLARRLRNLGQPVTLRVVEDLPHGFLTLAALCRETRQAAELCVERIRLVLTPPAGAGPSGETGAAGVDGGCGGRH
Description: Hormone-sensitive lipase (HSL) [classified as a triacylglycerol lipase, EC 3.1.1.3, in accordance with the Recommendations of the Nomenclature Committee of the International Union of Biochemistry and Molecular Biology (available on the World Wide Web at the following address: http://www.chem.qmw.ac.uk/iubmb/enzyme/)]
Materials. The Hormone-sensitive lipase employed was provided by Dr. Cecilia Holm of Lund University, Sweden, or produced and purified by Novo Nordisk (NN) using the reagents and protocols employed by Dr. Holm. The substrates used are: ^3H-labeled triolein (TO) from Amersham, Buckinghamshire, U.K. cat No. TRA191; 5-20 Ci/mmol dissolved in toluene, triolein (Sigma, Cat. No. T-1740) and mono-oleoyl-2-O-mono-oleylglycerol (MOME) synthesized at (NN) using the protocols provided by Dr. Cecilia Holm, Lund University, Sweden. Phosphatidyl choline (PC) and phosphatidyl inositol (PI) are from Sigma (St Luis Mo., cat. Nos. P-3556 and P-5954, respectively). All other reagents are of commercial grade and obtained from various commercial sources.
Methods. The preparation of the substrates is as follows:
TO: 30 μl PC:PI (20 mg/ml solution of PC:PI 3:1 prepared in chloroform)+128 μl cold TO+15 μl ^3H-TO
MOME: 30 μl PC:PI+100 μl cold MOME+200 μl ^3H-MOME
They are then evaporated under a gentle stream of N2 followed by 20-30 minutes in a Speedvac™ apparatus to ensure the absence of residual solvent.
The samples are prepared as follows:
Samples/controls: 78 μl PED-BSA+20 μl inhibitor (various concentrations)+2 μl HSL (undiluted 0.12 mg/ml). If no inhibitors are being tested, the reaction contains 98 μl PED-BSA+2 μl HSL.
The samples are put on ice and then sonicated as follows:
With TO as substrate, add 2 ml potassium buffer (0.1M potassium phosphate, pH 7) and then sonicate twice for 1 minute, with a 1-minute interval between cycles. Add an additional 1 ml potassium buffer and sonicate 4 times for 30 seconds, with a 30 second interval in between cycles. To finish, add 1 ml BSA 20%-in potassium buffer, mix by inversion and store on ice until use.
With MOME as substrate: add 2 ml potassium buffer and then sonicate twice for 1 minute, with a 1 minute interval between cycles. Add 1.6 ml potassium buffer and sonicate 4 times for 30 seconds, with a 30-second interval between cycles. To finish, add 0.4 ml BSA 20%-buffer, mix by inversion and store on ice until use.
The enzyme reaction is run at 37° C. The substrate mix is added to the various reactions at 10 second intervals, incubated for 30 minutes in a water bath and then stopped with 3.25 ml of a solution containing CH3OH:CHCl3:heptane (10:9:7). After the addition of 1.05 ml potassium buffer pH10.5, the sample is vortexed thoroughly and centrifuged for 20 min at 2000 r.p.m. One ml of the upper phase is added to 10 ml scintillation fluid, and mixed thoroughly by shaking.
The samples are then counted, 5 min per vial, in a scintillation counter.

Lipoprotein lipase (LPL) = target: T2, Lipoprotein lipase (LPL) (Bos taurus, UniProt P11151); test: Lipoprotein lipase (LPL) inhibition assay, 3H-triolein/intralipid substrate; assay type: biochemical; conditions: read-out: LPL inhibition (% inh. at 50 μM)
T2 construct: Dr. Gunilla Olivecrona, Umea University (gift)
T2 sequence (P11151 29-478): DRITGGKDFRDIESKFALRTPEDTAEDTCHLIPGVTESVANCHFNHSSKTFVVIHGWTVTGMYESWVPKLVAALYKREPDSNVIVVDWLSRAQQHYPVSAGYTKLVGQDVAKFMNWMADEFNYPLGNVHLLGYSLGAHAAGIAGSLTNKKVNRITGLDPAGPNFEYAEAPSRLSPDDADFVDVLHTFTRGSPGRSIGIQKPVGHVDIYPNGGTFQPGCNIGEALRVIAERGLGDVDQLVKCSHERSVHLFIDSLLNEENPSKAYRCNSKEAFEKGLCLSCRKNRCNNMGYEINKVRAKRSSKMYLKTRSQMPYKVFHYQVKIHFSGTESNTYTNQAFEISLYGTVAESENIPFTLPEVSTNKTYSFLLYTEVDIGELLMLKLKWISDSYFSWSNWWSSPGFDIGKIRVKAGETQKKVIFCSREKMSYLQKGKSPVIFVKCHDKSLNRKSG
Description: Lipoprotein Lipase (LPL) [Classified as EC 3.1.1.34 in accordance with the Recommendations of the Nomenclature Committee of the International Union of Biochemistry and Molecular Biology (available on the World Wide Web at the following address: http://www.chem.qmw.ac.uk/iubmb/enzyme/)]
Materials. The lipoprotein lipase employed was obtained from Dr. Gunilla Olivecrona of Umea University, Sweden. ^3H-triolein (TO) from Amersham, Buckinghamshire, U.K., cat No. TRA191; 5-20 Ci/mmol dissolved in toluene. Intralipid is from Kabi-Fresenius). Apo CII was obtained from PMSF-treated plasma from overnight fasted rats. All other reagents are of commercial grade and obtained from various commercial sources.
Methods. The preparation of the substrate is as follows:
25 μl of ^3H-Triolein evaporated under a gentle stream of N2 in a 27° C. room in 4 ml chromacol glass followed by the addition of 1 ml 10% intralipid. This is mixed and sonicated on ice for 5 minutes (50% pulse mode). This can be kept for 1 week at 4° C.
100 μl assay medium (0.3M Tris-Cl, 0.2M NaCl, 0.2 mg heparin/ml and 120 mg BSA/ml (fraction V, Sigma no. 3401, pH 8.5))
All mixed in a 13×100 mm glass tube and incubated for at least 5 minutes.
2. Add 5 μl LPL (of a solution containing 500 mU/mg)
Mix and incubate for 30 minutes at 25° C.
3. The reaction is stopped with 3.25 ml of a solution containing Methanol:chloroform:heptan 10:9:7. Add 1.05 ml buffer (100 mM Boric acid, 100 mM potassium carbonate pH 10.5) and mix 10 seconds per vial.
5. Take 1 ml of the upper phase+10 ml scintillation fluid and mix
6. Scintillation count for 5 minutes per vial.

[2] = read-out: HSL inhibition (IC50)

SMILES	IC50 [1, 2] [nM]	inhibition at 50 µM (Lipoprotein lipase (LPL)) [%]	IC50 [1] [nM]
Nc1ccc(OC(=O)NN2CCc3ccccc3C2)cc1 [Example 18, (3,4-Dihydro-1H-isoquinolin-2-yl)-carbamic Acid 4-amino-phenyl Ester Hydrochloride]	7700	0	
CCCc1ccc(OC(=O)NN2CCc3ccccc3C2)cc1 [Example 20, (3,4-Dihydro-1H-isoquinolin-2-yl)-carbamic Acid 4-propyl-phenyl Ester]	240	4	
CN(C(=O)Oc1ccc(Cl)cc1)N1CCc2ccccc2C1 [Example 21, (3,4-Dihydro-1H-isoquinolin-2-yl)-methyl-carbamic Acid 4-chloro-phenyl Ester]	> 10000	5	
CC1c2ccccc2CCN1NC(=O)Oc1ccc(Cl)cc1 (stereo not drawn) [Example 22, (1-Methyl-3,4-dihydro-1H-isoquinolin-2-yl)-carbamic Acid 4chloro-phenyl Ester]	30	10	
O=C(NN1CCc2ccccc2C1)Oc1ccc(Cc2ccccc2)cc1 [Example 27]		5	90
CCc1ccc(OC(=O)NN2CCc3ccccc3C2)cc1 [Example 28]	70	3	
O=C(NN1CCc2ccccc2C1)Oc1ccc(OCc2ccccc2)cc1 [Example 29]	2600	0	
CCCCOc1ccc(OC(=O)NN2CCc3ccccc3C2)cc1 [Example 30]	3800	6	
CCC(C)(C)c1ccc(OC(=O)NN2CCc3ccccc3C2)cc1 [Example 31]	> 10000	1	
CC(C)(C)c1ccc(OC(=O)NN2CCc3ccccc3C2)cc1 [Example 32]	> 10000	0	
CCC(C)c1ccc(OC(=O)NN2CCc3ccccc3C2)cc1 (stereo not drawn) [Example 33]	170	2	
CCOC(=O)c1ccc(OC(=O)NN2CCc3ccccc3C2)cc1 [Example 35]	> 10000	0	
CCCCCOc1ccc(OC(=O)NN2CCc3ccccc3C2)cc1 [Example 37]	3900	0	
O=C(NN1CCc2ccccc2C1)Oc1ccc(Oc2ccccc2)cc1 [Example 38]	330	0	
CCCOc1ccc(OC(=O)NN2CCc3ccccc3C2)cc1 [Example 39]	2500	2	
O=C(NN1CCc2ccccc2C1)Oc1ccc(OC(F)(F)F)cc1 [Example 40]	3400	1	
COC(=O)Cc1ccc(OC(=O)NN2CCc3ccccc3C2)cc1 [Example 42]	40	6	
O=C(NN1CCc2ccccc2C1)Oc1ccc(C2CCCCC2)cc1 [Example 43]	> 10000	6	
